Assay results taken from patent US20060003993A1, “Benzotriazepnes as gastrin and cholecystokinin receptor ligands” (James Black Foundation Limited, priority 2001, published 2006).

How the values were obtained:
gastrin (CCK2) receptors = biological target: T1, gastrin (CCK2) receptors (Rattus norvegicus, UniProt P30553); assay: immature rat stomach assay, gastrin (CCK2) antagonist activity; format: cell-based; conditions: pentagastrin dose-response curves, acid secretion
T1 construct: The stomach was excised and flushed with ca. 1 ml of unbuffered physiological saline solution; from tissue; host or cells: isolated lumen-perfused stomach of immature rats (ca. 21 days old)
T1 sequence (P30553 1-452): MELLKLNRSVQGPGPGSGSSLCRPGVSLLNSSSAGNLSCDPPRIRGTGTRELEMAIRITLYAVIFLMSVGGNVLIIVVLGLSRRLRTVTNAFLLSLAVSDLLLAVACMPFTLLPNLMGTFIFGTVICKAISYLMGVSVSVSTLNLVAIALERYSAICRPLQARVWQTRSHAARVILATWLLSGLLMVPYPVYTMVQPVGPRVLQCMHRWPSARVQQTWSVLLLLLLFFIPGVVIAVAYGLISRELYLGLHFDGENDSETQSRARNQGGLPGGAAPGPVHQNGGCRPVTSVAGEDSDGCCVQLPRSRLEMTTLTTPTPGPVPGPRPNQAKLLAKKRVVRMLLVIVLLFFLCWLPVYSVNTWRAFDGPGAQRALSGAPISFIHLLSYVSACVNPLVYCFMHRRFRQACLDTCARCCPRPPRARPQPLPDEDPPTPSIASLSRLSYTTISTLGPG
Method: The compounds of the examples were tested for gastrin (CCK2) antagonist activity in an immature rat stomach assay. The procedure was as follows:
The oesophagus of immature rats (33-50 g, ca. 21 days old) was ligated at the level of the cardiac sphincter and the duodenal sphincter was cannulated. The stomach was excised and flushed with ca. 1 ml of unbuffered physiological saline solution. The fundus was punctured and cannulated. A further 4-5 ml of unbuffered solution was flushed through the stomach to ensure the preparation was not leaking. […] The stomach was continuously perfused at a rate of 1 ml min^−1 with unbuffered solution gassed with 100% O2 with the perfusate passing over an internally referenced pH-electrode fixed 12 cm above the stomach.
After 120 min of stabilisation the drugs were added directly to the serosal solution in the organ bath and after a further 60 min cumulative pentagastrin dose-response curves were started.

[1] = biological target: T2, human gastrin (CCK2) receptors (Homo sapiens, UniProt P32239); assay: [125I]-BH-CCK-8S competition binding at human CCK2 receptors cloned into NIH3T3 cells; conditions: hCCK2 receptor, NIH3T3 clone 7 membranes, [125I]-BH-CCK-8S 200 pM, 150 min at 21° C.
T2 construct: amplified by PCR (polymerase chain reaction) from the start codon to the stop codon; expressed in transfected cells
T2 sequence (P32239 1-447): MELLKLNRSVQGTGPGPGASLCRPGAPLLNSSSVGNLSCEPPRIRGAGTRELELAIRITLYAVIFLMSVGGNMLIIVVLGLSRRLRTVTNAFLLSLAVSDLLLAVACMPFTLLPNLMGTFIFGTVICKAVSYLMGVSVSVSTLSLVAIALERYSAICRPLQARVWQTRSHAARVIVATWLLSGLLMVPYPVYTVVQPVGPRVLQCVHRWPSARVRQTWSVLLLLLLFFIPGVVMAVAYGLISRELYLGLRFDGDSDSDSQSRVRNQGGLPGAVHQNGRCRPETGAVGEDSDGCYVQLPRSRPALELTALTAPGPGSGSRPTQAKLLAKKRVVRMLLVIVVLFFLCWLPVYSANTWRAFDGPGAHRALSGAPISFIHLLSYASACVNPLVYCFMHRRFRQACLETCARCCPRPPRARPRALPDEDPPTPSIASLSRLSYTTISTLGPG
Text: Step a: Subcloning of IMAGE Clone Encoding the Human CCK2R into a Mammalian Expression Vector
I.M.A.G.E. (Integrated Molecular Analysis of Genomes and their Expression) clone number 3504160 (Lennon et al. Genomics 33, 151-152 (1996)) was purchased from the HGMP (Human Genome Mapping Project, Cambridge). The cDNA encoding the mRNA for the human CCK2R, corresponding to accession number BC000740, was present in vector pOTB7 in host cell DH10B. The cells, initially streaked on to LB-Agar plates containing 20 μg/ml chloramphenicol, were then grown in LB containing 20 μg/ml chloramphenicol with shaking at 37° C. according to standard techniques (Current Protocols in Molecular Biology, Wiley). DNA was prepared using the QIAGEN® EndoFree™ plasmid Maxi kit (Qiagen Ltd.) according to the manufacturer's protocol. The DNA was then amplified by PCR (polymerase chain reaction) from the start codon to the stop codon using primers containing restriction sites, Eco R1 and Xba I respectively, to facilitate uni-directional cloning. […]
The PCR product was purified using the QIAGEN® MinElute™ PCR purification kit, according to the manufacturer's instructions. […] The digested DNA bands of the correct size, analysed by ethidium bromide stained agarose/TBE gels, were excised and purified using QIAGEN@ MinElute™ gel extraction kit, according to the manufacturer's instructions. […]

Compound | pKB rat stomach (gastrin (CCK2) receptors) | pKi ± s.e.mean [1]
CNc1cc(NC(=O)CN2N=C(C3CCCCC3)c3ccccc3N(CC(O)C(C)(C)C)C2=O)cc(C(=O)OC)c1 (stereo not drawn) [Example 78] | 6.49 ± 0.33 | 
Cc1cccc2c1C(C1CCCCC1)=NN(CC(=O)Nc1cccc(C(=O)O)c1)C(=O)N2CC(=O)C(C)(C)C [Example 114] | 7.45 ± 0.43 | 
Cc1cccc(NC(=O)N[C@@H]2N=C(c3ccccc3)c3ccccc3N(CC(=O)c3ccccc3C)C2=O)c1 [YM022] |  | 10.19 ± 0.03
